Measurements reported in patent publication US20190351019A1, “STEROID ADMINISTRATION AND IMMUNOTHERAPY” (Intrexon Corporation, priority 2016, published 2019).

Assay: Infusion of CAR-T cells followed by prednisone in a B-ALL patient: GVHD course and blood counts (case report)
Type: in vivo, human
Conditions: about 1 mg/kg starting day 14; on day 18 (or Day 48 since administration of CAR-T cells); dose then reduced to about 0.5 mg/kg
Procedure: A person was diagnosed with B-cell acute lymphoblastic leukemia (B-ALL). […] Multiple salvage therapies were given. POMP maintenance therapy was subsequently started. The patient further developed graft-versus-host disease GVHD and was treated with prednisone and tacrolimus. Additional radiation therapy (XRT), immunotherapy, hyperCAVD and O-EPOCH were further administered to the patient. Further, lymphodepletion was induced in the patient with cyclophosphamide at 500 mg/m^2 and fludarabine at 30 mg/m^2 for 3 days. Following lymphodepletion, 10^6 CAR-T cells/kg were infused into the patient on day 0. […] About 1 mg/kg of prednisone was administered starting day 14. […] White blood cell count (WBC) was 2.7 and absolute lymphocyte count (ALC) was 200.

C[C@]12C=CC(=O)C=C1CC[C@@H]1[C@@H]2C(=O)C[C@@]2(C)[C@H]1CC[C@]2(O)C(=O)CO [prednisone]
outcome of GVHD under prednisone: GVHD was resolved
